Data as given in ChEMBL document CHEMBL2157958, “4-Isoxazolyl-1,4-dihydropyridines exhibit binding at the multidrug-resistance transporter” (Bioorg Med Chem, 2012).

How the values were obtained:
[1] = target: MDR1 (P-glycoprotein, ABCB1) (Homo sapiens, UniProt P08183); test: Inhibition of MDR1 in human Caco2 cells assessed as calcein accumulation after 30 mins by fluorescence assay; assay type: cell-based; design: concentration or dose not given beside the values; settings: Caco-2 cells
[2] = Binding affinity at VGCC by patch clamp method
[3] = Binding affinity at VGCC

MDR1 (P-glycoprotein, ABCB1), sequence (P08183 whole entry): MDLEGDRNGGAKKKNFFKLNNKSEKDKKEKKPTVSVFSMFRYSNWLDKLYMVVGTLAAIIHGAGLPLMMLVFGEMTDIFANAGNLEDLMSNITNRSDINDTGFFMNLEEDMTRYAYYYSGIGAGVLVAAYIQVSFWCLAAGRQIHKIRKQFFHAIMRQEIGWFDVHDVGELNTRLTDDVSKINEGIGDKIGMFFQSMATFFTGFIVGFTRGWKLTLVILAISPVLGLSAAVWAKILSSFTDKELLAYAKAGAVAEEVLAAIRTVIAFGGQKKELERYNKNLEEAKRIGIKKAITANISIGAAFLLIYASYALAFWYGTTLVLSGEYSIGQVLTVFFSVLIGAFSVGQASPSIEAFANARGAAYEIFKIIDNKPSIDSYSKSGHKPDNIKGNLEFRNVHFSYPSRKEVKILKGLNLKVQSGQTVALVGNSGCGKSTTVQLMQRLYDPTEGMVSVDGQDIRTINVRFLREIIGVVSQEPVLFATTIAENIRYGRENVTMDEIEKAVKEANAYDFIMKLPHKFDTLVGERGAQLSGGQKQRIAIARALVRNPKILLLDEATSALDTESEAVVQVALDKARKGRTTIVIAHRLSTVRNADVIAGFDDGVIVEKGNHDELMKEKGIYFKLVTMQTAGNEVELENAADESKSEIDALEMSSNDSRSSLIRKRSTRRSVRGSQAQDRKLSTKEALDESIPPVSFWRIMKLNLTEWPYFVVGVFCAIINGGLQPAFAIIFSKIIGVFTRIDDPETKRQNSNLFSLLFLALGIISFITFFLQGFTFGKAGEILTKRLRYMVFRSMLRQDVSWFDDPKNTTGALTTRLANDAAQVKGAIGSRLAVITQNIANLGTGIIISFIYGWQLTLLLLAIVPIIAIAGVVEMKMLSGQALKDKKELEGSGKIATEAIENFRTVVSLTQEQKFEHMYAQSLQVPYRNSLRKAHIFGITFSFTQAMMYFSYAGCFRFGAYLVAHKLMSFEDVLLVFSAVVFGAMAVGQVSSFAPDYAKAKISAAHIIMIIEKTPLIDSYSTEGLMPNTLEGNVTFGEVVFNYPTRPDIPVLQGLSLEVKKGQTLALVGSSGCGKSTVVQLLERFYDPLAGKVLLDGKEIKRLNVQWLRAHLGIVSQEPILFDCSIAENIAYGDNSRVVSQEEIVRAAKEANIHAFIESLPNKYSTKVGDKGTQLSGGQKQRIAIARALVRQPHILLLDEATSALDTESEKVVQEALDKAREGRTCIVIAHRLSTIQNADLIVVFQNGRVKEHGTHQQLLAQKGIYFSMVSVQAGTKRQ

Row | inhibition at 0.5 h [1] [%] | Activity [2] [µM] | Ki [3] [nM] | Structure (SMILES)
1 | 32.8 | 17.1 |  | CCOC(=O)C1=C(C)N=C(C)/C(=C(/O)OCC)C1c1c(-c2ccccc2OC)noc1C (stereo unspecified)
2 | 19 | 0.47 | 4.1 | CCOC(=O)C1=C(C)N=C(C)/C(=C(/O)OCC)C1c1c(C)noc1CCc1cccc2ccccc12 (stereo unspecified)
3 | 48.9 |  | 13.9 | CCOC(=O)C1=C(C)N=C(C)/C(=C(/O)OCC)C1c1c(-c2ccccc2)noc1C (stereo unspecified)
4 | 38.4 |  |  | CCOC(=O)C1=C(C)N=C(C)/C(=C(/O)OCC)C1c1c(-c2ccccc2)noc1C(C)C (stereo unspecified)
5 | 18.6 |  | 8.69 | CCOC(=O)C1=C(C)N=C(C)/C(=C(/O)OCC)C1c1c(C)noc1CCc1ccc(-c2ccccc2)cc1 (stereo unspecified)
6 | 26.8 | 1.98 |  | CCOC(=O)C1=C(C)N=C(C)/C(=C(/O)OCC)C1c1c(-c2cccc(Cl)c2)noc1C (stereo unspecified)
7 | 11.7 |  |  | CCOC(=O)C1=C(C)N=C(C)/C(=C(/O)OCC)C1c1c(-c2ccc(Cl)cc2)noc1C (stereo unspecified)
8 | 27.6 |  | 55.3 | CCOC(=O)C1=C(C)N=C(C)/C(=C(/O)OCC)C1c1c(-c2ccccc2)noc1CCc1ccccc1 (stereo unspecified)
9 | 61.2 |  |  | CCOC(=O)C1=C(C)NC(C)=C(C(=O)OCC)C1c1c(C)noc1C(C)Cc1cccc(Br)c1 (racemic)
10 | 10.9 | 9.68 |  | CCOC(=O)C1=C(C)N=C(C)/C(=C(/O)OCC)C1c1c(-c2ccccc2Cl)noc1C (stereo unspecified)
11 | 15 | 6.86 |  | CCOC(=O)C1=C(C)N=C(C)/C(=C(/O)OCC)C1c1c(-c2cc(Cl)ccc2OC)noc1C (stereo unspecified)
12 | 38.3 |  |  | CCOC(=O)C1=C(C)NC(C)=C(C(=O)OCC)C1c1c(C)noc1C(C)Cc1cccc2ccccc12 (stereo unspecified)
